Experiments:
[1] = target: T1, interaction between GMPPNP-bound recombinant K-Ras4B G12C mutant protein and cRAF RAS-binding domain (cRAF-RBD) (Homo sapiens, UniProt P01116, G12C); test: Inhibitory activity on interaction between KRAS G12C and cRAF (Alpha technology); conditions: GMPPNP-bound KRAS G12C incubated with compound 25° C. 1 hour; Table 2-1; read-out: IC50
T1 construct: His-tag (N)
Summary of the method: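 Alpha signal measured 1.5 h after adding cRAF-RBD (aa 50-132) and detection reagents to GMPPNP-bound KRAS G12C (aa 1-169) pretreated 1 h at 25° C with compound (pH 7.5 buffer). 0% inhibition = DMSO, 100% = GDP-loaded KRAS; IC50 by curve fit.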

MIA PaCa-2 cells = test: Growth inhibition activity on KRAS-G12C mutant cell line (CellTiter-Glo 3D); type: cell-based, human; conditions: MIA PaCa-2, 3-day culture with compound, Table 3-1
Summary of the method: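 IC50 (nM) derived from inhibition of luminescence (CellTiter-Glo 3D) relative to compound-free wells. Cells were seeded in U-bottom plates, grown 1 day, then exposed to compound for 3 days at 37 °C with 0.2% final DMSO.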

T1 sequence (P01116 with tags, fused parts or gaps isoform P01116-2 G12C): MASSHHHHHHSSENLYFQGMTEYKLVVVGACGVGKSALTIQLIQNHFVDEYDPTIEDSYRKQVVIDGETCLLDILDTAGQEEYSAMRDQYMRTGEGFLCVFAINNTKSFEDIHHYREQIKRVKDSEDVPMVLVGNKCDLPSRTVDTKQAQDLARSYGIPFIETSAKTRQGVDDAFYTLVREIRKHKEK

Structure (SMILES) | IC50 [1] [nM] | IC50 (MIA PaCa-2 cells; Homo sapiens, MIA PaCa-2, 72 h) [nM] | IC50 (MIA PaCa-2 cells) [nM]
Cc1c2cc(C(F)(F)F)c3c(c2nn1C)N(C)CCc1cc(C(=O)c2cc(F)c(NC(=O)/C=C/CN[C@H]4CCOC4)c(F)c2)n2cccc-3c12 (single isomer, unassigned) [Example 154] | 10.2 | 7.93 | –
Cc1c2cc(C(F)(F)F)c3c(c2nn1C)N(C)CCc1cc(C(=O)c2cc(F)c(NC(=O)/C=C/CNC4(C)CC4)c(F)c2)n2cccc-3c12 (single isomer, unassigned) [Example 155, (E)-N-(2,6-difluoro-4-(9,10,12-trimethyl-7-(trifluoromethyl)-10,12,13,14-tetrahydro-indolizino[8′,1′:4,5,6]-azocino[3,2-g]indazole-2-carbonyl)phenyl)-4-((1-methylcyclopropyl)-amino)but-2-enamide] | 8.95 | 13.5 | –
COc1cc2c(ncn2C)c2c1-c1cccn3c(C(=O)c4cc(F)c(NC(=O)/C=C/CN[C@H]5CCOC5)c(F)c4)cc(c13)CCN2C (single isomer, unassigned) [Example 159] | 7.22 | 8.16 | –
COc1cc2c(ncn2C)c2c1-c1cccn3c(C(=O)c4cc(F)c(NC(=O)/C=C/CNC5(C)CC5)c(F)c4)cc(c13)CCN2C (single isomer, unassigned) [Example 160, (E)-N-(2,6-difluoro-4-(7-methoxy-9,12-dimethyl-9,12,13,14-tetrahydro-imidazo[4″,5″:5′,6′]benzo-[1′,2′:2,3]azocino[4,5,6-hi]indolizine-2-carbon-yl)phenyl)-4-((1-methyl-cyclopropyl)amino)but-2-enamide] | 5.71 | 9.25 | –
CN1CCc2nc(C(=O)c3cc(F)c(NC(=O)/C=C/CN[C@H]4CCOC4)c(F)c3)n3cccc(c23)-c2c(C(F)(F)F)cc3c(ncn3C)c21 (single isomer, unassigned) [Example 167] | 27.9 | 16.4 | –
COc1cc2c(nc(C(F)(F)F)n2C)c2c1-c1cccn3c(C(=O)c4cc(F)c(NC(=O)/C=C/CN[C@H]5CCOC5)c(F)c4)cc(c13)CCN2C (single isomer, unassigned) [Example 168] | 43.8 | 15.6 | –
COCc1nc2c3c(c(OC)cc2n1C)-c1cccn2c(C(=O)c4cc(F)c(NC(=O)/C=C/CNC5(C)COC5)c(F)c4)cc(c12)CCN3C (single isomer, unassigned) [Example 170, (E)-N-(2,6-difluoro-4-(7-methoxy-10-(methoxy-methyl)-9,12-dimethyl-9,12,13,14-tetrahydro-imidazo[4″,5″:5′,6′]benzo-[1′,2′:2,3]azocino[4,5,6-hi]indolizine-2-carbonyl)-phenyl)-4-((3-methyl-oxetan-3-yl)amino)but-2-enamide] | 14.1 | 47.7 | –
COCc1nc2c3c(c(OC)cc2n1C)-c1cccn2c(C(=O)c4cc(F)c(NC(=O)/C=C/CN[C@H]5CCOC5)c(F)c4)cc(c12)CCN3C (single isomer, unassigned) [Example 171] | 6.34 | 13.5 | –
Cc1c2cc(C(F)(F)F)c3c(c2nn1C)N(C)CCc1nc(C(=O)c2cc(F)c(NC(=O)/C=C/CN[C@H]4CCOC4)c(F)c2)n2cccc-3c12 (single isomer, unassigned) [Example 176] | 67.4 | 25.1 | –
COCc1nc2c3c(c(OC)cc2n1C)-c1cccn2c(C(=O)c4cc(F)c(NC(=O)/C=C/CN[C@H]5CCOC5)c(F)c4)nc(c12)CCN3C (single isomer, unassigned) [Example 177] | 39.5 | 38.5 | –
COCCn1cnc2c3c(c(C(F)(F)F)cc21)-c1cccn2c(C(=O)c4cc(F)c(NC(=O)/C=C/CNC5(C)COC5)c(F)c4)cc(c12)CCN3C (single isomer, unassigned) [Example 178, (E)-N-(2,6-difluoro-4-(9-(2-methoxyethyl)-12-methyl-7-(trifluorometh-yl)-9,12,13,14-tetrahydro-imidazo[4″,5″:5′,6′]benzo-[1′,2′:2,3]azocino[4,5,6-hi]indolizine-2-carbonyl)-phenyl)-4-((3-methyl-oxetan-3-yl)amino)but-2-enamide] | 32.4 | 41.3 | –
CN1CCc2cc(C(=O)c3cc(F)c(NC(=O)/C=C/CNC4(C)COC4)c(F)c3)n3cccc(c23)-c2c(C(F)(F)F)cc3[nH]cnc3c21 (single isomer, unassigned) [Example 179, (E)-N-(2,6-difluoro-4-(12-methyl-7-(trifluorometh-yl)-9,12,13,14-tetrahydro-imidazo[4″,5″:5′,6′]benzo-[1′,2′:2,3]azocino[4,5,6-hi]indolizine-2-carbonyl)-phenyl)-4-((3-methyloxe-tan-3-yl)amino)but-2-enamide] | 41.6 | 139 | –
CN1CCc2cc(C(=O)c3cc(F)c(NC(=O)/C=C/CN4CC[C@H]4C(C)(C)O)c(F)c3)n3cccc(c23)-c2c(C(F)(F)F)cc3c(ncn3C)c21 (single isomer, unassigned) [Example 180] | 49.3 | 12.7 | –
COCc1nc2c3c(c(OC)cc2n1C)-c1cccn2c(C(=O)c4cc(F)c(NC(=O)/C=C/CNC5(C)CC5)c(F)c4)nc(c12)CCN3C (single isomer, unassigned) [Example 181, (E)-N-(2,6-difluoro-4-(6-methoxy-9-(methoxy-methyl)-8,11-dimethyl-8,11,12,13-tetrahydro-1,2a,8,10,11-pentaaza-cycloocta[1,2,3-cd:5,4-e′]-diindene-2-carbonyl)phen-yl)-4-((1-methylcyclo-propyl)amino)but-2-en-amide] | 48.1 | 21 | –
CN1CCc2nc(C(=O)c3cc(F)c(NC(=O)/C=C/CNC4(C)CC4)c(F)c3)n3cccc(c23)-c2c(C(F)(F)F)cc3c(ncn3C)c21 (single isomer, unassigned) [Example 182] | 35.2 | 27.8 | –
CC1(NC/C=C/C(=O)Nc2c(F)cc(C(=O)c3cc4c5c(cccn35)-c3c(cc(N5CCCC5=O)cc3C(F)(F)F)OCC4)cc2F)COC1 (single isomer, unassigned) [Example 183, (E)-N-(2,6-difluoro-4-(7-(2-oxopyrrolidin-1-yl)-9-(trifluoromethyl)-3,4-dihydrobenzo[2,3]oxocino-[4,5,6-hi]indolizine-1-carbonyl)phenyl)-4-((3-methyloxetan-3-yl)-amino)-but-2-enamide] | 35.2 | 112 | –
COCc1nc2c3c(c(C(F)(F)F)cc2n1C)-c1cccn2c(C(=O)c4cc(F)c(NC(=O)/C=C/CN[C@H]5CCOC5)c(F)c4)nc(c12)CCN3C (single isomer, unassigned) [Example 184] | 48.3 | 28.1 | –
COCCn1cnc2c3c(c(C(F)(F)F)cc21)-c1cccn2c(C(=O)c4cc(F)c(NC(=O)/C=C/CN[C@H]5CCOC5)c(F)c4)cc(c12)CCN3C (single isomer, unassigned) [Example 186] | 16.7 | 10.3 | –
COCc1nc2c3c(c(OC)cc2n1C)-c1cccn2c(C(=O)c4cc(F)c(NC(=O)/C=C/CN5CCCC5)c(F)c4)cc(c12)CCN3C (single isomer, unassigned) [Example 188, (E)-N-(2,6-difluoro-4-(7-methoxy-10-(methoxy-methyl)-9,12-dimethyl-9,12,13,14-tetrahydro-imidazo[4″,5″:5′,6′]benzo-[1,2:2,3]azocino[4,5,6-hi]indolizine-2-carbonyl)-phenyl)-4-(pyrrolidin-1-yl)but-2-enamide] | 72.5 | 39.7 | –
CN1CCc2cc(C(=O)c3cc(F)c(NC(=O)/C=C/CN4CC[C@H]4CO)c(F)c3)n3cccc(c23)-c2c(C(F)(F)F)cc3c(ncn3C)c21 (single isomer, unassigned) [Example 199] | 10.1 | 3.67 | –
COCCn1c(C)nc2c3c(c(OC)cc21)-c1cccn2c(C(=O)c4cc(F)c(NC(=O)/C=C/CNC5(C)CC5)c(F)c4)cc(c12)CCN3C (single isomer, unassigned) [Example 200, (E)-N-(2,6-difluoro-4-(7-methoxy-9-(2-methoxyethyl)-10,12-dimethyl-9,12,13,14-tetrahydroimidazo[4″,5″:5′,6′]benzo[1′,2′:2,3]azocino[4,5,6-hi]indolizine-2-carbonyl)phenyl)-4-((1-methylcyclopropyl)amino)but-2-enamide] | 13.7 | 4.62 | –
COCCn1c(C)nc2c3c(c(OC)cc21)-c1cccn2c(C(=O)c4cc(F)c(NC(=O)/C=C/CN[C@H]5CCOC5)c(F)c4)cc(c12)CCN3C (single isomer, unassigned) [Example 201] | 17.6 | 5.83 | –
COCCn1cnc2c3c(c(OC)cc21)-c1cccn2c(C(=O)c4cc(F)c(NC(=O)/C=C/CNC5(C)CC5)c(F)c4)cc(c12)CCN3C (single isomer, unassigned) [Example 202, (E)-N-(2,6-difluoro-4-(7-methoxy-9-(2-methoxy-ethyl)-12-methyl-9,12,13,14-tetrahydro-imidazo[4″,5″:5′,6′]benzo-[1′,2′:2,3]azocino[4,5,6-hi]indolizine-2-carbonyl)-phenyl)-4-((1-methyl-cyclopropyl)amino)but-2-enamide] | 13 | 10.2 | –
COCCn1cnc2c3c(c(OC)cc21)-c1cccn2c(C(=O)c4cc(F)c(NC(=O)/C=C/CN[C@H]5CCOC5)c(F)c4)cc(c12)CCN3C (single isomer, unassigned) [Example 203] | 20.4 | 11 | –
CC(O)[C@]1(C)CCCN1C/C=C/C(=O)Nc1c(F)cc(C(=O)c2cc3c4c(cccn24)-c2c(C(F)(F)F)cc4c(ncn4C)c2N(C)CC3)cc1F (single isomer, unassigned) [Example 204] | 36.4 | – | 118

— patent publication US20240262842A1, “SMALL MOLECULE INHIBITORS OF KRAS G12C MUTANT” (Merck Sharp & Dohme LLC, priority 2021, published 2024)
